Experimental data: ChEMBL document CHEMBL2440014, “Design, synthesis and biological evaluation of di-substituted cinnamic hydroxamic acids bearing urea/thiourea unit as potent histone deacetylase inhibitors” (Bioorg Med Chem Lett, 2013)

Columns and labels:
[1] = molecular target: Histone deacetylase (Homo sapiens) (UniProt Q13547+O15379+Q9UBN7+Q92769+Q9UQL6+Q8WUI4+Q9BY41+Q96DB2+P56524+Q9UKV0+Q969S8); conditions: HeLa, at 1 µM
Description: Inhibition of HDAC in human HeLa cell nuclear extracts using Fluor de Lys as substrate at 1 uM by fluorescence assay

Histone deacetylase = test: Inhibition of HDAC in human HeLa cell nuclear extracts using Fluor de Lys as substrate by fluorescence assay; format: protein assay
HCT-116 = test: Antiproliferative activity against human HCT116 cells after 48 hrs by sulforhodamine B assay; format: functional; conditions: HCT-116, 48 h
MCF7 = test: Antiproliferative activity against human MCF7 cells after 48 hrs by sulforhodamine B assay; format: functional; conditions: MCF7, 48 h
MDA-MB-435 = test: Antiproliferative activity against human MDA-MB-435 cells after 48 hrs by sulforhodamine B assay; format: functional; conditions: MDA-MB-435, 48 h
NCI-H460 = test: Antiproliferative activity against human NCI-H460 cells after 48 hrs by sulforhodamine B assay; format: functional; conditions: NCI-H460, 48 h
OVCAR-5 = test: Antiproliferative activity against human OVCAR5 cells after 48 hrs by sulforhodamine B assay; format: functional; conditions: OVCAR-5, 48 h

| inhibition [1] | IC50 (Histone deacetylase) | GI50 (HCT-116) | GI50 (MCF7) | GI50 (MDA-MB-435) | GI50 (NCI-H460) | GI50 (OVCAR-5) | SMILES |
| --- | --- | --- | --- | --- | --- | --- | --- |
| 87.5% | 304 nM |  |  |  |  |  | CCCCCCNC(=O)Nc1cc(/C=C/C(=O)NO)ccc1OCCN(CC)CC |
| 83.6% | 410 nM |  |  |  |  |  | CCCCCCCNC(=O)Nc1cc(/C=C/C(=O)NO)ccc1OCCN(CC)CC |
| 79.6% |  |  |  |  |  |  | CCCCCCNC(=O)Nc1cc(/C=C/C(=O)NO)ccc1SCCN(CC)CC |
| 80% | 234 nM |  |  |  |  |  | CCCNC(=O)Nc1cc(/C=C/C(=O)NO)ccc1OCCN(CC)CC |
| 73.9% |  |  |  |  |  |  | CCCCNC(=S)Nc1cc(/C=C/C(=O)NO)ccc1SCCN(CC)CC |
| 62.4% |  |  |  |  |  |  | CCCCCCCNC(=S)Nc1cc(/C=C/C(=O)NO)ccc1SCCN(CC)CC |
|  |  | 940 nM | 450 nM | 880 nM |  |  | O=C(CCCCCCC(=O)Nc1ccccc1)NO [VORINOSTAT] |
| 87.4% | 187 nM |  |  |  |  |  | CCCCCCNC(=S)Nc1cc(/C=C/C(=O)NO)ccc1OCCN(CC)CC |
| 84.2% | 206 nM | 560 nM | 400 nM | 990 nM | 940 nM | 1800 nM | CCCCCNC(=O)Nc1cc(/C=C/C(=O)NO)ccc1SCCN(CC)CC |
| 72.2% |  |  |  |  |  |  | CCCCCCNC(=S)Nc1cc(/C=C/C(=O)NO)ccc1SCCN(CC)CC |
| 88.9% | 186 nM | 470 nM | 290 nM | 830 nM | 870 nM | 1340 nM | CCCCCNC(=O)Nc1cc(/C=C/C(=O)NO)ccc1OCCN(CC)CC |
| 73.8% |  |  |  |  |  |  | CCCCCNC(=S)Nc1cc(/C=C/C(=O)NO)ccc1SCCN(CC)CC |
| 76.2% |  |  |  |  |  |  | CCCNC(=S)Nc1cc(/C=C/C(=O)NO)ccc1SCCN(CC)CC |
| 82.7% | 198 nM |  |  |  |  |  | CCCNC(=O)Nc1cc(/C=C/C(=O)NO)ccc1SCCN(CC)CC |
|  |  | 240 nM | 170 nM | 480 nM | 220 nM | 610 nM | CCCCc1nc2cc(/C=C/C(=O)NO)ccc2n1CCN(CC)CC [PRACINOSTAT] |
| 90.5% | 216 nM | 720 nM | 380 nM | 1180 nM | 1080 nM | 1560 nM | CCCCCNC(=S)Nc1cc(/C=C/C(=O)NO)ccc1OCCN(CC)CC |
| 69.8% |  |  |  |  |  |  | CCCCCCCNC(=S)Nc1cc(/C=C/C(=O)NO)ccc1OCCN(CC)CC |
| 80.7% |  |  |  |  |  |  | CCCCNC(=O)Nc1cc(/C=C/C(=O)NO)ccc1OCCN(CC)CC |
| 48.7% |  |  |  |  |  |  | CCCCCCCNC(=O)Nc1cc(/C=C/C(=O)NO)ccc1SCCN(CC)CC |
| 84.5% | 172 nM | 590 nM | 430 nM | 1500 nM | 1550 nM | 1750 nM | CCCCNC(=O)Nc1cc(/C=C/C(=O)NO)ccc1SCCN(CC)CC |
| 88% | 130 nM | 350 nM | 220 nM | 510 nM | 480 nM | 1120 nM | CCCCNC(=S)Nc1cc(/C=C/C(=O)NO)ccc1OCCN(CC)CC |
| 82.9% | 210 nM |  |  |  |  |  | CCCNC(=S)Nc1cc(/C=C/C(=O)NO)ccc1OCCN(CC)CC |
